Assay results reported in US8257928B2, “Methods for predicting and treating tumors resistant to drug, immunotherapy and radiation” (The Regents of the University of California, priority 2008, dated 2012).

Tested on: HMT3522 T4-2 cells
Assay: Percent cell death in 2D monolayer, 3D rBM and reverted cultures (active caspase 3)
Assay type: cell-based, human
Source text: The oligonucleotides specifying the small hairpin RNAs (shRNAs) were subcloned from pSilencer-H1 into pLZRS-MFG-CMV-Neo-U6, a recombinant self-inactivating retroviral vector constructed from the backbone of an MFG provirus (Proc. Natl. Acad. Sci. USA 85:6460-6464 (1988); Proc. Natl. Acad. Sci. USA 90:3539-3543 (1993)), which directs the expression of shRNA under the control of the U6 promoter. Amphotropic retrovirus was produced in Phoenix ampho cells (provided by Professor G. Nolan, Stanford Medical Center) with packaging vectors pCgp and pVSVG to boost viral titer. S1 cells or T4-2 cells, maintained in monolayer cultures, were then spin infected with retrovirus carrying the various RNAi constructs and infected cell populations were selected using 300 μg/ml G418 (Invitrogen).
Non-neoplastic HMT3522 S1 breast epithelial cells or neoplastic HMT3522 T4-2 cells were embedded (8.5×10^5/ml) within reconstituted basement membrane (rBM) gel (Matrigcl, BD Biosciences) in chamber slides (Lab-Tek chamber slides, Nunc) according to the procedures described in U.S. Pat. No. 6,123,941 and Nat. Method. 4:359-365 (2007). […] Phenotypic reversion of HMT3522 T4-2 cells in three dimensional rBM cultures was performed using an epidermal growth factor receptor (EGFR) specific tyrosine kinase inhibitor tyrphostin AG 1478 (100 nM) (Calbiochem), as previously described (Proc. Natl. Acad. Sci. USA 95:14821-14826 (1998))
Apoptotic cell death of the breast epithelial cells cultured in three dimensional rBM was initiated by treatment with recombinant, purified human tumor necrosis factor-related apoptosis-inducing ligand (TRAIL) peptides (BIOMOL) or Paclitaxel (Sigma-Aldrich) as described (Cancer Cell 2:205-216 (2002)). DNA damage-induced cell death was initiated by ionizing radiation (IR) using a Mark I Cesium 137 irradiator (JL Shepherd & Associates).
Percent cell death induced by TRAIL or Paclitaxel was quantified using detection of active caspase 3 (Cell Signaling) by indirect immunofluorescence as described (J. Cell Biol. 163:1397-1407 (2003)). Percent cell death induced by IR was quantified using Live/Dead Viability/Cytotoxicity Assay (Molecular Probes). For both methods, cells were counterstained with 4′,6-diamidino-2-phenylindole (DAPI) to label cell nuclei present at different focal planes in the 3D architectures. Percent death was calculated as cells positive for ethidium bromide or active caspase 3 expressed as a percentage of the total number of cells scored by the nuclear staining.
Percent cell death induced by TRAIL was quantified using detection of active caspasc 3 as described in Example 4.

Row | Molecule | sensitivity to death induction by TRAIL of cells transduced with the mutant (T4-2 cells in rBM gel 5 days, vs vector control cells) | death sensitivity of cells cultured in 3D rBM (3D rBM disorganized aggregates vs 2D monolayer, TRAIL 1.0 μg/mL, Paclitaxel 20 μM) | death sensitivity of structurally reverted spheroids (reverted with tyrphostin AG 1478 in 3D rBM, TRAIL 1.0 μg/mL, Paclitaxel 20 μM)
1 | N-CoR2 (K449A): mutant N-CoR2 with lysine 449 mutated to alanine; binds HDAC3 but does not activate it | hypersensitive to death induction to an extent even greater than that of the vector control cells |  | 
2 | CC(=O)O[C@H]1C(=O)[C@@]2(C)[C@H]([C@H](OC(=O)c3ccccc3)[C@]3(O)C[C@H](OC(=O)[C@H](O)[C@@H](NC(=O)c4ccccc4)c4ccccc4)C(C)=C1C3(C)C)[C@]1(OC(C)=O)CO[C@@H]1C[C@@H]2O [Paclitaxel, reference compound] |  | decreased sensitivity | further decrease in the sensitivity
